According to US9371320B2, “Heterocyclic compound” (TAKEDA PHARMACEUTICAL COMPANY LIMITED, priority 2012, dated 2016):
Like-named read-outs stand apart in the source and are kept apart here.

How the values were obtained:
[1] = molecular target: T1, Tyk2 (Homo sapiens, UniProt P29597); assay: Tyk2 enzyme inhibition test (LANCE method); assay type: biochemical; conditions: for inhibition at 1 µM: test compound 1 μM, read-out: Inhibitory rate (%) Tyk2 1 μM; for inhibition at 10 µM: test compound 10 μM, read-out: Inhibitory rate (%) Tyk2 10 μM
T1 construct: purchased Invitrogen
T1 sequence (P29597 whole entry): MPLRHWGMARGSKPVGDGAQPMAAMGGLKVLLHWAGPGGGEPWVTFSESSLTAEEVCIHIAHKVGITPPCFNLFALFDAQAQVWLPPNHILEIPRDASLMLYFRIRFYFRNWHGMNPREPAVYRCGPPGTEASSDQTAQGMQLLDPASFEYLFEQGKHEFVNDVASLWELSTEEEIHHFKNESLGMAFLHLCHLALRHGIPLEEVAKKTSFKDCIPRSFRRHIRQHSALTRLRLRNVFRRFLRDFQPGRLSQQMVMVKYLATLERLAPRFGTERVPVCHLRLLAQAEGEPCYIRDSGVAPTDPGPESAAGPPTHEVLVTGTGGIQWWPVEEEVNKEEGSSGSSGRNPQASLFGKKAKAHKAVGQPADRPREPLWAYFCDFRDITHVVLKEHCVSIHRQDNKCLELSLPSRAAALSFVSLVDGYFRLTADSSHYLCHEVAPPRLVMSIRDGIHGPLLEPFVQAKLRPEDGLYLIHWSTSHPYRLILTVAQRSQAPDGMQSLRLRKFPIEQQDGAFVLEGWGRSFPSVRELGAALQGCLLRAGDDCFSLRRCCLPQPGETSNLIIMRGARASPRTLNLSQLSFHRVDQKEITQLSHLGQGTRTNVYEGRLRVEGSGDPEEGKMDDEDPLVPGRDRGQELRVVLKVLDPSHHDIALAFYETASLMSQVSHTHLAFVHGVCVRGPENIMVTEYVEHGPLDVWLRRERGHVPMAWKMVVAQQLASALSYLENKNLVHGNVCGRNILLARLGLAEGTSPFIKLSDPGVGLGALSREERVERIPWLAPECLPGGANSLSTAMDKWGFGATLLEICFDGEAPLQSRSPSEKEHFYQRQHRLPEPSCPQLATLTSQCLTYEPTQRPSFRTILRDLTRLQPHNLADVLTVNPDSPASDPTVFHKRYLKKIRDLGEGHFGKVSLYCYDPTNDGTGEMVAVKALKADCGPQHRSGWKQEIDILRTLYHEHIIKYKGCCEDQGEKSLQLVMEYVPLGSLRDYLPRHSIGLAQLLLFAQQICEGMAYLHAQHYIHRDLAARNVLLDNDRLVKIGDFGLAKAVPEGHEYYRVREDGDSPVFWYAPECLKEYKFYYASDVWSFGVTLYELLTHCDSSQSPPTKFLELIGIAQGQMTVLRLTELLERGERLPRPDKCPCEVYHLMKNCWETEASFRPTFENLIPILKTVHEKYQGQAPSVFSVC
How it was run: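 LANCE TR-FRET read-out (ex 340/em 665 nm, 100 μs delay) of ULight-JAK1 phosphorylation, with no-enzyme wells as 100% inhibition. Reaction run 1 h at room temperature in pH 7.5 HEPES buffer; enzyme 375 ng/mL, substrate 300 nM and ATP 30 μM are solution concentrations before mixing.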

[2] = molecular target: T2, JAK1 (Homo sapiens, UniProt P23458); assay: JAK1 enzyme inhibition test (LANCE method); assay type: biochemical; conditions: for inhibition at 1 µM: test compound 1 μM, read-out: Inhibitory rate (%) JAK1 1 μM; for inhibition at 10 µM: read-out: Inhibitory rate (%) JAK1 10 μM
T2 construct: purchased Invitrogen
T2 sequence (P23458 whole entry): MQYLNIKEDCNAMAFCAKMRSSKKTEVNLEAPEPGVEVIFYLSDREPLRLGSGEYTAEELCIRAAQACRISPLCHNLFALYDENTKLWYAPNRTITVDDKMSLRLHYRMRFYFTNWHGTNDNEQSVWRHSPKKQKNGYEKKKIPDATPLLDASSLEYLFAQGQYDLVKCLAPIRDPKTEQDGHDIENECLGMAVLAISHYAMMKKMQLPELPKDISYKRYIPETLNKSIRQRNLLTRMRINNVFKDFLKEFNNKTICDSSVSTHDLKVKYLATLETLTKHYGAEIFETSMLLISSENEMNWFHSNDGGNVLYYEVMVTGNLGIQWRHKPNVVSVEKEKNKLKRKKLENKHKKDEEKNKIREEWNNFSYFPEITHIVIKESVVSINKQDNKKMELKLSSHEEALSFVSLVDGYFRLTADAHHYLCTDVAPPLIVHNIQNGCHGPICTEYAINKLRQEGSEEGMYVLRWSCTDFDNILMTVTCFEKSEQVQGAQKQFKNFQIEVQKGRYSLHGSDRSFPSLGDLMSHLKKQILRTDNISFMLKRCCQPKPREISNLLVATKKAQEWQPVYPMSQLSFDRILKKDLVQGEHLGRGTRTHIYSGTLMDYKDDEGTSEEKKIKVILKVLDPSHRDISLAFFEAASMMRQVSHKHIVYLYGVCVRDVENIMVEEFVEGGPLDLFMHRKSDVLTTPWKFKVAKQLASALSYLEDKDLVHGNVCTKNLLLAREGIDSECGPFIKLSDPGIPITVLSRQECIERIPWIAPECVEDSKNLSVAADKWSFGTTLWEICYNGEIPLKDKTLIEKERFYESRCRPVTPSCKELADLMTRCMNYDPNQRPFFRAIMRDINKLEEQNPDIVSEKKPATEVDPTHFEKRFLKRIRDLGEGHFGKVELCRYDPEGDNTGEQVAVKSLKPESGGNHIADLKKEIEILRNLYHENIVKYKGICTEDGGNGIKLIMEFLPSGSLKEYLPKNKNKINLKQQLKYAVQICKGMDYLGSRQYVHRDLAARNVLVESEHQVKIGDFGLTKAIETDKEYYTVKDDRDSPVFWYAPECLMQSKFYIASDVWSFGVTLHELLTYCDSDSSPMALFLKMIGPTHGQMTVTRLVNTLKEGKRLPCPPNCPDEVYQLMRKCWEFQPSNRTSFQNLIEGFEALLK
How it was run: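 Reactions ran 1 h at room temperature in HEPES pH 7.5/MgCl2 buffer, with ATP solution at 150 μM and JAK1 and ULight peptide solutions at 187.5 ng/mL and 300 nM. Reactions were stopped with EDTA, and phosphorylation was read by Eu antibody time-resolved fluorescence at 665 nm. Inhibition was scaled to a no-enzyme control as 100%.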

[3] = test compound 10 μM (Ex. 182-220), beside Tyk2 1 μM

Row | SMILES | inhibition at 1 µM [1] | inhibition at 1 µM [2] | inhibition at 10 µM [1] | inhibition at 10 µM ([2]; test compound 10 μM) | inhibition at 10 µM [2, 3]
1 | N#Cc1c[nH]c(=O)c2c(-c3cnn(CC(N)=O)c3)cn(C3CCCC3)c12 [Example 98, 2-(4-(7-cyano-1-cyclopentyl-4-oxo-4,5-dihydro-1H-pyrrolo[3,2-c]pyridin-3-yl)-1H-pyrazol-1-yl)acetamide] | 97% | 78% | – | – | –
2 | O=c1[nH]ccc2c1c(-c1ccc3nonc3c1)nn2C1CCCC1 [Example 59, 3-(2,1,3-benzoxadiazol-5-yl)-1-cyclopentyl-1,5-dihydro-4H-pyrazolo[4,3-c]pyridin-4-one] | 56% | 66% | – | – | –
3 | CC[C@H](COC)n1nc(-c2csc(C(N)=O)c2)c2c(=O)[nH]ccc21 [Example 263, 4-(1-((2R)-1-methoxybutan-2-yl)-4-oxo-4,5-dihydro-1H-pyrazolo[4,3-c]pyridin-3-yl)thiophene-2-carboxamide] | 90% | 97% | – | – | –
4 | O=c1[nH]ccc2c1c(-c1ccncc1)nn2C1CCCC1 [Example 44, 1-cyclopentyl-3-(pyridin-4-yl)-1,5-dihydro-4H-pyrazolo[4,3-c]pyridin-4-one] | 91% | 94% | – | – | –
5 | CC(C)(C)n1nc(NC(=O)c2ccccc2)c2c(=O)[nH]ccc21 [Example 265, N-(1-tert-butyl-4-oxo-4,5-dihydro-1H-pyrazolo[4,3-c]pyridin-3-yl)benzamide] | – | – | 24% | 21% | –
6 | CNC(=O)c1ccc(F)c(-c2nn(-c3c(F)cccc3F)c3cc[nH]c(=O)c23)c1 [Example 272, 3-(1-(2,6-difluorophenyl)-4-oxo-4,5-dihydro-1H-pyrazolo[4,3-c]pyridin-3-yl)-4-fluoro-N-methylbenzamide] | – | – | 25% | 12% | –
7 | COCCNC(=O)COc1ccc(-c2nn(-c3c(F)cccc3F)c3c(Cl)c[nH]c(=O)c23)cc1 [Example 217, 2-(4-(7-chloro-1-(2,6-difluorophenyl)-4-oxo-4,5-dihydro-1H-pyrazolo[4,3-c]pyridin-3-yl)phenoxy)-N-(2-methoxyethyl)acetamide] | 99% | – | – | – | 74%
8 | O=c1[nH]cc(Cl)c2c1c(-c1cnn(C3CCOCC3)c1)nn2-c1c(F)cccc1F [Example 205, 7-chloro-1-(2,6-difluorophenyl)-3-(1-(tetrahydro-2H-pyran-4-yl)-1H-pyrazol-4-yl)-1,5-dihydro-4H-pyrazolo[4,3-c]pyridin-4-one] | 97% | – | – | – | 34%
9 | CC1(Cn2nc(-c3csc(C(N)=O)c3)c3c(=O)[nH]ccc32)COC1 [Example 141, 4-(1-((3-methyloxetan-3-yl)methyl)-4-oxo-4,5-dihydro-1H-pyrazolo[4,3-c]pyridin-3-yl)thiophene-2-carboxamide] | 92% | 99% | – | – | –
10 | N#Cc1c[nH]c(=O)c2c(-c3cnn(C4CC4)c3)cn(C3CCCC3)c12 [Example 138, 1-cyclopentyl-3-(1-cyclopropyl-1H-pyrazol-4-yl)-4-oxo-4,5-dihydro-1H-pyrrolo[3,2-c]pyridine-7-carbonitrile] | 99% | 94% | – | – | –
11 | COc1ccc(CNc2nn(C(C)(C)C)c3cc[nH]c(=O)c23)cc1 [Example 249, 1-tert-butyl-3-((4-methoxybenzyl)amino)-1,5-dihydro-4H-pyrazolo[4,3-c]pyridin-4-one] | – | – | 25% | 30% | –
12 | NS(=O)(=O)c1ccc(-c2nn(C3CCC(O)CC3)c3cc[nH]c(=O)c23)cc1 (stereo not drawn) [Example 119, 4-(1-(4-hydroxycyclohexyl)-4-oxo-4,5-dihydro-1H-pyrazolo[4,3-c]pyridin-3-yl)benzenesulfonamide] | 99% | 100% | – | – | –
13 | O=c1[nH]cc(Cl)c2c1c(-c1ccc(N3CCCOCC3)cc1)nn2-c1c(F)cccc1F [Example 207, 7-chloro-1-(2,6-difluorophenyl)-3-(4-(1,4-oxazepan-4-yl)phenyl)-1,5-dihydro-4H-pyrazolo[4,3-c]pyridin-4-one] | 100% | – | – | – | 73%
14 | NC(=O)c1cc(F)c(-n2nc(-c3ccc(N4CCOCC4)cc3)c3c(=O)[nH]ccc32)c(F)c1 [Example 251, 3,5-difluoro-4-(3-(4-(morpholin-4-yl)phenyl)-4-oxo-4,5-dihydro-1H-pyrazolo[4,3-c]pyridin-1-yl)benzamide] | 99% | 96% | – | – | –
15 | NC(=O)c1cc(-c2nn(C3CCCC3)c3c(Br)c[nH]c(=O)c23)cs1 [Example 280, 4-(7-bromo-1-cyclopentyl-4-oxo-4,5-dihydro-1H-pyrazolo[4,3-c]pyridin-3-yl)thiophene-2-carboxamide] | 97% | 94% | – | – | –
16 | CCC(COC)n1nc(-c2csc(C(N)=O)c2)c2c(=O)[nH]ccc21 (stereo not drawn) [Example 150, 4-(1-(1-methoxybutan-2-yl)-4-oxo-4,5-dihydro-1H-pyrazolo[4,3-c]pyridin-3-yl)thiophene-2-carboxamide] | 98% | 99% | – | – | –
17 | NS(=O)(=O)c1ccc(Nc2nn(C3CCCC3)c3cc[nH]c(=O)c23)cc1 [Example 297, 4-((1-cyclopentyl-4-oxo-4,5-dihydro-1H-pyrazolo[4,3-c]pyridin-3-yl)amino)benzenesulfonamide] | 99% | 98% | – | – | –
18 | CC1(C)OCC(Cn2cc(-c3ccc(S(N)(=O)=O)cc3)c3c(=O)[nH]ccc32)O1 (stereo not drawn) [Example 90, 4-(1-((2,2-dimethyl-1,3-dioxolan-4-yl)methyl)-4-oxo-4,5-dihydro-1H-pyrrolo[3,2-c]pyridin-3-yl)benzenesulfonamide] | – | – | 22% | 38% | –
19 | COc1ccc(-c2nn(C3CCCC3)c3cc[nH]c(=O)c23)cc1 [Example 46, 1-cyclopentyl-3-(4-methoxyphenyl)-1,5-dihydro-4H-pyrazolo[4,3-c]pyridin-4-one] | 95% | 91% | – | – | –
20 | CC1(O)CCC(n2nc(-c3csc(C(N)=O)c3)c3c(=O)[nH]ccc32)CC1 (stereo not drawn) [Example 198, 4-(1-(4-hydroxy-4-methylcyclohexyl)-4-oxo-4,5-dihydro-1H-pyrazolo[4,3-c]pyridin-3-yl)thiophene-2-carboxamide] | 100% | – | – | – | 100%
21 | N#Cc1c[nH]c(=O)c2c(-c3cccs3)cn(C3CCCC3)c12 [Example 134, 1-cyclopentyl-4-oxo-3-(2-thienyl)-4,5-dihydro-1H-pyrrolo[3,2-c]pyridine-7-carbonitrile] | 97% | 78% | – | – | –
22 | CNC(=O)c1cc(-c2nn(C3CCCC3)c3cc[nH]c(=O)c23)cs1 [Example 155, 4-(1-cyclopentyl-4-oxo-4,5-dihydro-1H-pyrazolo[4,3-c]pyridin-3-yl)-N-methylthiophene-2-carboxamide] | 99% | 100% | – | – | –
23 | O=C(NCCO)c1cc(-c2nn(C3CCCC3)c3cc[nH]c(=O)c23)cs1 [Example 157, 4-(1-cyclopentyl-4-oxo-4,5-dihydro-1H-pyrazolo[4,3-c]pyridin-3-yl)-N-(2-hydroxyethyl)thiophene-2-carboxamide] | 99% | 100% | – | – | –
24 | CCC(CC)n1cc(-c2csc(C#N)c2)c2c(=O)[nH]ccc21 [Example 9, 4-(4-oxo-1-(pentan-3-yl)-4,5-dihydro-1H-pyrrolo[3,2-c]pyridin-3-yl)thiophene-2-carbonitrile] | 93% | 97% | – | – | –
25 | CC(C)(C)n1nc(Nc2cccc(S(N)(=O)=O)c2)c2c(=O)[nH]ccc21 [Example 248, 3-((1-tert-butyl-4-oxo-4,5-dihydro-1H-pyrazolo[4,3-c]pyridin-3-yl)amino)benzenesulfonamide] | 70% | 96% | – | – | –
26 | COc1cccc(-c2nn(C3CCCC3)c3cc[nH]c(=O)c23)c1 [Example 47, 1-cyclopentyl-3-(3-methoxyphenyl)-1,5-dihydro-4H-pyrazolo[4,3-c]pyridin-4-one] | 71% | 62% | – | – | –
27 | O=C1Cc2cc(-c3nn(C4CCCC4)c4cc[nH]c(=O)c34)ccc2N1 [Example 58, 1-cyclopentyl-3-(2-oxo-2,3-dihydro-1H-indol-5-yl)-1,5-dihydro-4H-pyrazolo[4,3-c]pyridin-4-one] | 91% | 86% | – | – | –
28 | NS(=O)(=O)c1ccc(-c2cn([C@H]3CC[C@@H](O)CC3)c3cc[nH]c(=O)c23)cc1 [Example 32, 4-(1-(cis-4-hydroxycyclohexyl)-4-oxo-4,5-dihydro-1H-pyrrolo[3,2-c]pyridin-3-yl)benzenesulfonamide] | 95% | 98% | – | – | –
29 | N#CC1(NC(=O)c2cc(-c3nn(-c4c(F)cccc4F)c4c(Cl)c[nH]c(=O)c34)cs2)CC1 [Example 163, 4-(7-chloro-1-(2,6-difluorophenyl)-4-oxo-4,5-dihydro-1H-pyrazolo[4,3-c]pyridin-3-yl)-N-(1-cyanocyclopropyl)thiophene-2-carboxamide] | 100% | 98% | – | – | –
30 | Cc1ccccc1-c1nn(-c2csc(C(=O)O)c2)c2c(=O)[nH]cc(Br)c12 [Example 79, 4-(4-bromo-3-(2-methylphenyl)-7-oxo-6,7-dihydro-1H-pyrazolo[3,4-c]pyridin-1-yl)thiophene-2-carboxylic acid] | 93% | 44% | – | – | –
